{"source": "patent US7087634B2", "about": "“Cyclic AMP-specific phosphodiesterase inhibitors” (ICOS Corporation, priority 1999, dated 2006)", "key": {"PDE3A": {"molecular_target": "T1, PDE3A (Homo sapiens, UniProt Q14432)", "T1 construct": "Plasmid pBB-PDE3A contained the complete open reading frame of PDE3A; made in house; host or cells: Sf9 (baculovirus)", "T1 sequence (Q14432 whole entry)": "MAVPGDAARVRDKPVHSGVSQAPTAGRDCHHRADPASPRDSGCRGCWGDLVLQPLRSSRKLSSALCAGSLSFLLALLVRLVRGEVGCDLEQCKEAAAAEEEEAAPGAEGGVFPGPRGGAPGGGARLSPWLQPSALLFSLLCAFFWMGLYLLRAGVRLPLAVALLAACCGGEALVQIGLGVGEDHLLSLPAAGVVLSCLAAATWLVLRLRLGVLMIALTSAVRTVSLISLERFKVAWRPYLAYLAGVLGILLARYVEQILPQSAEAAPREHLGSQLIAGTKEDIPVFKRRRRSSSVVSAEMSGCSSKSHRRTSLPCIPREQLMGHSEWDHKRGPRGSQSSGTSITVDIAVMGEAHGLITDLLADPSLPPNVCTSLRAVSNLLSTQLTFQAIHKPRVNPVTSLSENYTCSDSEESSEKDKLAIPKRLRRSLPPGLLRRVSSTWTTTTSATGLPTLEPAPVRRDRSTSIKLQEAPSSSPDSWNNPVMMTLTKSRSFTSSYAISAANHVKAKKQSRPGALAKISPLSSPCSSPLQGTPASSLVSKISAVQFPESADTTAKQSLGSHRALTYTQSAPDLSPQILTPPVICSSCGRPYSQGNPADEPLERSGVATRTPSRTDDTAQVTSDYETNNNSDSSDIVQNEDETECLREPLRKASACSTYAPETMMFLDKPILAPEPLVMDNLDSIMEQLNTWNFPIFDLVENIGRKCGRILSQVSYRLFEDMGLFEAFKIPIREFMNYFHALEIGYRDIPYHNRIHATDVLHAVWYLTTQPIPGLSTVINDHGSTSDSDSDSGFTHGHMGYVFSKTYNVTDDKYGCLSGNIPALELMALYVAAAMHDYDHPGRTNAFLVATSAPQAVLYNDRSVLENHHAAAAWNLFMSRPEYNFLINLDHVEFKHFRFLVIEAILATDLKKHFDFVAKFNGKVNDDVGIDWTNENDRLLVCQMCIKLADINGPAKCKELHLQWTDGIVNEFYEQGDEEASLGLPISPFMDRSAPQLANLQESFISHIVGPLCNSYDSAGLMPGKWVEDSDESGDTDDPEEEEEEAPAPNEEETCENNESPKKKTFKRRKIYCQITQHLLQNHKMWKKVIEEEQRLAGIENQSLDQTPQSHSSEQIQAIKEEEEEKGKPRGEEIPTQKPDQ", "assay": "Inhibition of PDE3A", "type": "biochemical"}, "PDE5": {"molecular_target": "T2, PDE5 (Homo sapiens, UniProt O76074)", "T2 construct": "made in house; host or cells: Saccharomyces cerevisiae BJ2-54", "assay": "Inhibition of PDE5", "type": "biochemical", "experimental": "Recombinant production of human PDE1B, PDE2, PDE4A, PDE4B, PDE4C, PDE4D, PDE5, and PDE7 was carried out similarly to that described in Example 7 of U.S. Pat. No. 5,702,936, incorporated herein by reference, except that the yeast transformation vector employed, which is derived from the basic ADH2 plasmid described in Price et al., Methods in Enzymology, 185, pp. 308–318 (1990), incorporated yeast ADH2 promoter and terminator sequences and the Saccharomyces cerevisiae host was the protease-deficient strain BJ2–54 deposited on Aug. 31, 1998 with the American Type Culture Collection, Manassas, Va., under accession number ATCC 74465. Transformed host cells were grown in 2×SC-leu medium, pH 6.2, with trace metals, and vitamins. After 24 hours, YEP medium-containing glycerol was added to a final concentration of 2×YET/3% glycerol. […]\nPhosphodiesterase activity of the preparations was determined as follows. […] The [32P]5′-AMP or [32P]5′-GMP then was quantitatively converted to free [32P]phosphate and unlabeled adenosine or guanosine by the action of snake venom 5′-nucleotidase. […] PDE enzyme was present in quantities that yield <30% total hydrolysis of substrate (linear assay conditions). […] After centrifugation (750×g for 3 minutes) to sediment the charcoal, a sample of the supernatant was taken for radioactivity determination in a scintillation counter and the PDE activity was calculated. […]"}}, "data": [{"smiles": "CCOC(=O)c1c(C)nn(-c2cccc([N+](=O)[O-])c2)c1C", "note": "[Example 2, 3,5-dimethyl-1-(3-nitrophenyl)-1H-pyrazole-4-carboxylic acid ethyl ester]", "values": [{"measurement": "IC50", "setting": "PDE3A", "result": 137, "unit": "µM"}, {"measurement": "IC50", "setting": "PDE5", "result": 25.6, "unit": "µM"}]}]}
